Experimental data as given in patent US10265287B2, “Methods of reducing triglycerides and LDL-C” (Amarin Pharmaceuticals Ireland Limited, priority 2009, dated 2019).

Experiment: Lipid peroxide (LOOH) formation in model membranes, CHOD-iodide colorimetric assay
Assay type: biochemical
Settings: cholesterol-enriched membranes
Protocol: An experiment was conducted to test EPA, DHA, EPA+DHA with and without with atorvastatin in model membranes enriched with PUFAs and cholesterol at levels that reproduce disease or high CV-risk conditions (i.e. hypercholesterimia). […] EPA and DHA were tested individually at a fixed concentration of 10.0 uM or in combination at 5.65 μM and 4.35 μM (EPA and DHA, respectively), which is a mole ratio of 1.3:1. Separate and combined effects of these agents on lipid peroxide (LOOH) formation were examined at cholesterol-to-phospholipid (C/P) mole ratios of 0.5:1, 1.0:1 and 1.5:1. Levels of lipid hydroperoxides were also measured for EPA, DPH and EPA/DPH in cholesterol-enriched membrane prepared in the absence and presence of atorvastatin. […] To ensure spectrophotometric readings within the optimum absorbance range, sample volumes taken for measurement of lipid peroxide formation were adjusted for length of peroxidation and range between 100 and 10 μl. […] Absorbances were measured against a CHOD blank at 365 nm using a Beckman DU-640 spectrophotometer. The CHOD colorimetric assay is based on the oxidation of iodide (I^-) by lipid hydroperoxides (LOOH) and proceeds according to the following reaction scheme: […]3^- The quantity of triiodide anion (I3^-) liberated in this reaction is directly proportional to the amount of lipid hydroperoxides present in the membrane sample. […]

SMILES: CCC=CCC=CCC=CCC=CCC=CCCCC(=O)O [EPA, eicosa-5,8,11,14,17-pentaenoic acid]
- antioxidant benefit compared with DHA (EPA and DHA each tested at 10.0 uM): superior to that observed with DHA
- antioxidant benefit (lipid peroxide (LOOH) formation) (autoxidation at 37° C., EPA tested at 10.0 uM): potent antioxidant benefit
